{"source": "patent US5605911A", "about": "“Use of alpha-2 adrenergic drugs to prevent adverse effects of NMDA receptor hypofunction (NRH)” (priority 1995, dated 1997)", "key": {"[1]": {"system": "cerebral cortex", "settings": "adult rat, literature; cited from earlier work"}, "[2]": {"system": "NMDA receptor", "settings": "humans, literature; cited from earlier work"}, "[3]": {"system": "PC/RS cortical neurons", "assay": "protection by anti-psychotic drugs against MK-801 (NRH)-induced vacuoles in rats", "assay_type": "in vivo", "settings": "ip; for protection against vacuoles (activity in words): MK-801-treated rats", "description": "Control animals received saline or DMSO, but no anti-psychotic drugs. Test animals were injected ip with an antipsychotic drug, listed above and in Table 2. Vacuoles were counted and data were processed as described in Example 1."}, "[4]": {"assay": "penetration of sulpiride into the CNS", "assay_type": "in vivo", "settings": "in words"}, "[5]": {"settings": "Sershen 1994; cited from earlier work"}}}
{"smiles": "c1ccc(C2(N3CCCCC3)CCCCC2)cc1", "note": "[Phencyclidine]", "values": [{"measurement": "pathomorphological changes in brain", "setting": "[1]", "result": "produce pathomorphological changes in various corticolimbic regions of the adult rat brain"}, {"measurement": "psychotomimetic reactions", "setting": "[2]", "result": "can induce a psychosis which is clinically indistinguishable from schizophrenia"}]}
{"smiles": "CCN1CCCC1CNC(=O)c1cc(S(N)(=O)=O)ccc1OC", "note": "(stereo not shown) [Sulpiride]", "values": [{"measurement": "ED50", "setting": "[3]; Rattus norvegicus, Cortical neurone", "result": "> 200", "unit": "mg/kg"}, {"measurement": "protection against vacuoles (activity in words)", "setting": "[3]", "result": "Inactive"}, {"measurement": "protection against vacuoles (activity in words)", "setting": "[3]; listed as sulpiride", "result": "inactive"}, {"measurement": "time to penetrate into the CNS", "setting": "[4]", "result": "several hours"}]}
{"smiles": "CC[C@H]1C[C@H]2C[C@H]3c4[nH]c5ccc(OC)cc5c4CCN(C2)[C@@H]13", "note": "[ibogaine]", "values": [{"measurement": "craving for cocaine", "setting": "[5]", "result": "can suppress the craving for cocaine"}]}
